Entries after “also recorded” stand apart in the source; their conditions may differ. Like-named read-outs stand apart in the source and are kept apart here.
Experiments:
[1] = tested on: Guinea pigs; experiment: Hypolipidemic effect in Guinea pigs model (plasma TG, cholesterol, lipoproteins); assay type: in vivo, Guinea pig; details: for effect on plasma cholesterol / effect on plasma triglycerides (TG): gavage, days 21 and 22, result in words
Procedure: • Guinea pigs (400-500 g) were obtained from Harlan (Israel) or Harlan (Netherlands). Animals were treated by gavage with Medica 16αα, Medica 16ββ and Simvastatin as indicated in 1% CMC for the specified treatment periods. During treatment period the animals were weighed and observed daily.
Non-fasted guinea pigs were anesthetized with ketamine (75 mg/kg body weight) and xylazine (6 mg/kg body weight), followed by S.C. abdominal injections of 2% lignocaine. Anesthetized animals were bled into tubes containing EDTA. Plasma chylomicrons were removed by centrifugation (20 min, 30K rpm, TST 55.5 rotor). Plasma TG was assayed by Roche/Hitachi kit. Plasma cholesterol was assayed by Roche Diagnostic's kit.
Chylomicrons-free plasma was subjected to continuous KBr-gradient centrifugation (24 h, 40K rpm, SW41 rotor), followed by fractionating gradient tubes into 0.5 ml fractions. TG, cholesterol and protein of each fraction were measured as described above. […]
Guinea pigs were treated by gavage with M16αα, M16ββ or with Simvastatin, weighed and observed daily. Plasma triglycerides (TG) and cholesterol, as well as plasma lipoproteins and their composition were examined on days 21 and 22 (as specified in the following tables) of the experiments, as described in Experimental procedures. As clearly shown by Table 3 and FIG. 1, treatment with M16αα decreases plasma triglycerides (TG).

[2] = biological target: CYP3A4 (Homo sapiens, UniProt P08684)
[3] = biological target: CYP2C9 (Homo sapiens, UniProt P11712); experiment: in vitro
[4] = biological target: CYP2D6 (Homo sapiens, UniProt P10635); experiment: in vitro
[5] = biological target: T1, CYP2C8 (Homo sapiens, UniProt P10632); experiment: biochemical
T1 sequence (P10632 1-490): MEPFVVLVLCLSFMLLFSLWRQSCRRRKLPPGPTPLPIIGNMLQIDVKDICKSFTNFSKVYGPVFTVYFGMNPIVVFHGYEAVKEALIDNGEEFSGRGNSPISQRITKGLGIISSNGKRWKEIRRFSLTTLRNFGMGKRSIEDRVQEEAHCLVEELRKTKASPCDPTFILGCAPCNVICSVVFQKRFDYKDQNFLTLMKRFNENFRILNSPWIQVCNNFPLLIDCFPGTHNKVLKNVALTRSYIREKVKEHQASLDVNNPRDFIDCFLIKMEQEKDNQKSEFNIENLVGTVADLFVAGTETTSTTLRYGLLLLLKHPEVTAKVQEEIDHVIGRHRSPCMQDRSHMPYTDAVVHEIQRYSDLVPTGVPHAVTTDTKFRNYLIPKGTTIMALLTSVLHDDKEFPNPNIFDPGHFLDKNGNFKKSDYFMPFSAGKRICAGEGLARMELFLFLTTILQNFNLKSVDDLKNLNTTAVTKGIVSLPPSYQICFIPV

[6] = biological target: T2, CYP1A2 (Homo sapiens, UniProt P05177); experiment: Fluorimetric CYP inhibition assay, CYP1A2-CEC
T2 sequence (P05177 1-516): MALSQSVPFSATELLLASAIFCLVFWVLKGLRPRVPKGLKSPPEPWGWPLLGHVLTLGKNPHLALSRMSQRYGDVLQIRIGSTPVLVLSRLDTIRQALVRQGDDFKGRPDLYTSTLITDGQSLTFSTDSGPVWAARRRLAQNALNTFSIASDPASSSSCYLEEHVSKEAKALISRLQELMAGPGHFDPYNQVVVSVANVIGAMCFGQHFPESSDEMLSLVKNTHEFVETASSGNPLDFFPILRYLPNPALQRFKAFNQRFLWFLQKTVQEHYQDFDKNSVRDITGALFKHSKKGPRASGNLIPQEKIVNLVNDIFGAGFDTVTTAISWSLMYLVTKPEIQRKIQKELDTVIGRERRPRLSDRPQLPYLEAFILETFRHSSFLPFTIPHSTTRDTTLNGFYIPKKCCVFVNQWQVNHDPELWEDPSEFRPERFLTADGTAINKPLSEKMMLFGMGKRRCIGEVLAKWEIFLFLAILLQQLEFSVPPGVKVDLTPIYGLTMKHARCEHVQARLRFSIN

[7] = biological target: T3, CYP2B6 (Homo sapiens, UniProt P20813); experiment: Fluorimetric CYP inhibition assay, CYP2B6-EFC
T3 sequence (P20813 1-491): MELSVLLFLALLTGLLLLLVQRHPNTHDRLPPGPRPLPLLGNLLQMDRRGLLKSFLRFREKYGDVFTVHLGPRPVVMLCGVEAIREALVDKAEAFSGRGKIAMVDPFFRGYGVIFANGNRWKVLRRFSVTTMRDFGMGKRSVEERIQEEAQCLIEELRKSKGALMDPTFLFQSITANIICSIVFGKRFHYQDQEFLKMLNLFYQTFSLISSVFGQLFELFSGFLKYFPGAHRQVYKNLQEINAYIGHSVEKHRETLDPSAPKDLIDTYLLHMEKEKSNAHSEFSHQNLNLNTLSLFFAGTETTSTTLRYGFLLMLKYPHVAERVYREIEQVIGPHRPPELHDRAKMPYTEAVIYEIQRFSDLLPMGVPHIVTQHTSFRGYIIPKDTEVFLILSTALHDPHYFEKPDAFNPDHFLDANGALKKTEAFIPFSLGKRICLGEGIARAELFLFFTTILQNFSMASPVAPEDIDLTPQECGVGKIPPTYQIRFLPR

[8] = biological target: CYP2C19 (Homo sapiens, UniProt P33261); experiment: Fluorimetric CYP inhibition assay, CYP2C19-CEC
[9] = gavage 10 mg/kgbw, 21 days, n = 12
[10] = gavage 24 mg/kg/bw, 22 days, n = 10

CYP3A4, sequence (P08684 whole entry): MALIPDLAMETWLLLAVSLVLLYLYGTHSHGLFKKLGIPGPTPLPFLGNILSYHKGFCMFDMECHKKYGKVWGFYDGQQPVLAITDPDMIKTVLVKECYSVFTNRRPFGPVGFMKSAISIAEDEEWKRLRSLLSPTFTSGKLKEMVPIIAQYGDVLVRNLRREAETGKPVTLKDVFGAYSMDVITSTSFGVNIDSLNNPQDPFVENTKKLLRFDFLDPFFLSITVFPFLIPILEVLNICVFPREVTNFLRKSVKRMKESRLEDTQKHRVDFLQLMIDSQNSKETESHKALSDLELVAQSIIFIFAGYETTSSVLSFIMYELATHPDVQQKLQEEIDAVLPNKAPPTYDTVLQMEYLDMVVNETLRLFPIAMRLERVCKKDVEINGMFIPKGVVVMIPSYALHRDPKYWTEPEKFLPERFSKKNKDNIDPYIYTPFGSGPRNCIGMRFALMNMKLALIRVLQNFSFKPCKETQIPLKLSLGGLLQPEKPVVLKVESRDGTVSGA
CYP2D6, sequence (P10635 whole entry): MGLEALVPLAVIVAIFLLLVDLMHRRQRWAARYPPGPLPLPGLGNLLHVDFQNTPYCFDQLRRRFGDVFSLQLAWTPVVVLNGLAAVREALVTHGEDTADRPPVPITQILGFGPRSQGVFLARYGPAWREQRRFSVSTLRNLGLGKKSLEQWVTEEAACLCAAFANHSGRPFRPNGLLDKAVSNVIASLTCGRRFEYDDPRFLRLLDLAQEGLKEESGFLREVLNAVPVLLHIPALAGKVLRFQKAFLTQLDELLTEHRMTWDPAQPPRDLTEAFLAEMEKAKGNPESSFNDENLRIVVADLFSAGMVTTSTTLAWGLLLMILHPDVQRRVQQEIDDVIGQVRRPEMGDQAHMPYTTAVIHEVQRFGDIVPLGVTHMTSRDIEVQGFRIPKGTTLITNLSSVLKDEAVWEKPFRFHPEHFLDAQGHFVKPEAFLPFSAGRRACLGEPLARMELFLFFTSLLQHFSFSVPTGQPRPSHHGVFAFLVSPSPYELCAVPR
CYP2C9, sequence (P11712 whole entry): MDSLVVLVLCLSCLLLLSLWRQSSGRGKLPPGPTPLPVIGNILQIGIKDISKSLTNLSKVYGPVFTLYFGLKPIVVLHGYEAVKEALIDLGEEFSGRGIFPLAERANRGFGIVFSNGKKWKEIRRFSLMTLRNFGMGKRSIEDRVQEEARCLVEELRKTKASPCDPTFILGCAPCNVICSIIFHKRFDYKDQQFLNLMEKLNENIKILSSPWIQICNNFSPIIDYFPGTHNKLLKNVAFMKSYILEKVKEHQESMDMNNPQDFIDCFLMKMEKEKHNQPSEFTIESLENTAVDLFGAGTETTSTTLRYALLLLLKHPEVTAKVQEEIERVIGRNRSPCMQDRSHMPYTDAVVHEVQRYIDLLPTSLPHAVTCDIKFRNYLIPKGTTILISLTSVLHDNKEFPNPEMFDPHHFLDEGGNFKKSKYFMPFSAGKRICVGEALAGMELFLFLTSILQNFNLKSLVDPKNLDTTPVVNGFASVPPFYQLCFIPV
CYP2C19, sequence (P33261 whole entry): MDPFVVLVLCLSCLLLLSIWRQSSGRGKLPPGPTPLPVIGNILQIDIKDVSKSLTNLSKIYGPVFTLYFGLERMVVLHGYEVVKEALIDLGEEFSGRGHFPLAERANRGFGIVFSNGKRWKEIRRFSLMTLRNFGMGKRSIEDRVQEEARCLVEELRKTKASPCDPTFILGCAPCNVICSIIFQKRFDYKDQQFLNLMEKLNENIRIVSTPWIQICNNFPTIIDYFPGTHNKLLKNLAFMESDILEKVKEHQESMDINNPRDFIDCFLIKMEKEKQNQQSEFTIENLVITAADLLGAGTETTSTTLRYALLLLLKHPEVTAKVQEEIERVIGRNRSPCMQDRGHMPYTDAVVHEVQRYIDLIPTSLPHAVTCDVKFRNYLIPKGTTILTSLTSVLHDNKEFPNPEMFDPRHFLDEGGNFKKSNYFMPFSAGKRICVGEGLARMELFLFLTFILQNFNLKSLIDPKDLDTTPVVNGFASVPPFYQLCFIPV

CC(C)(CCCCCCCCCCCCC(C)(C)C(=O)O)C(=O)O [M16αα, 2,2,15,15-tetramethylhexadecane-1,16-dioic acid]
Liver/body weight % [1, 9]: 6.3 ± 0.1%
Weight gain [1, 9]: 201 ± 8 g
effect on plasma cholesterol [1]: pronounced decrease
effect on plasma triglycerides (TG) [1]: reduces; also recorded: decreases
effect on LDL-cholesterol levels ([1]; lipoprotein profile, FIG. 2, result in words): reduces
% Inhibition (set 1) ([2]; 0.05 μM): 5%
% Inhibition (set 2) ([2]; 0.05 μM): 1%
% Inhibition (set 1) ([2]; 3.7 μM): 1%
% Inhibition (set 1) ([2]; 33.33 μM): 4%
inhibition at 0.05 μM ([3]; % Inhibition (set 1)): 4%
inhibition at 0.41 μM ([3]; % Inhibition (set 1)): 5%
inhibition at 1.23 μM ([3]; % Inhibition (set 1)): 2%
inhibition at 3.7 μM ([3]; % Inhibition (set 1)): 6%
inhibition at 11.11 μM ([3]; % Inhibition (set 1)): 15%
inhibition at 33.33 μM ([3]; % Inhibition (set 1)): 15%
inhibition at 100 μM ([3]; % Inhibition (set 1)): 29%
inhibition at 0.05 μM ([3]; % Inhibition (set 2)): 0%
inhibition at 0.41 μM ([3]; % Inhibition (set 2)): 5%
inhibition at 1.23 μM ([3]; % Inhibition (set 2)): 9%
inhibition at 3.7 μM ([3]; % Inhibition (set 2)): 0%
inhibition at 11.11 μM ([3]; % Inhibition (set 2)): 7%
inhibition at 33.33 μM ([3]; % Inhibition (set 2)): 14%
inhibition at 100 μM ([3]; % Inhibition (set 2)): 31%
inhibition at 0.05 μM ([4]; % Inhibition (set 1)): 0%
inhibition at 0.41 μM ([4]; % Inhibition (set 1)): 0%
inhibition at 1.23 μM ([4]; % Inhibition (set 1)): 0%
inhibition at 3.7 μM ([4]; % Inhibition (set 1)): 0%
inhibition at 11.11 μM ([4]; % Inhibition (set 1)): 3%
inhibition at 33.33 μM ([4]; % Inhibition (set 1)): 11%
inhibition at 100 μM ([4]; % Inhibition (set 1)): 7%
inhibition at 0.05 μM ([4]; % Inhibition (set 2)): 0%
inhibition at 0.41 μM ([4]; % Inhibition (set 2)): 0%
inhibition at 1.23 μM ([4]; % Inhibition (set 2)): 0%
inhibition at 3.7 μM ([4]; % Inhibition (set 2)): 0%
inhibition at 11.11 μM ([4]; % Inhibition (set 2)): 2%
inhibition at 33.33 μM ([4]; % Inhibition (set 2)): 15%
inhibition at 100 μM ([4]; % Inhibition (set 2)): 0%
IC50 [5]: > 100 µM
IC50 [6]: > 100 µM
IC50 [7]: > 100 µM
IC50 [8]: 46 µM

CC(C)(CCCCCCCCCCC(C)(C)CC(=O)O)CC(=O)O [M16ββ, 3,3,14,14-tetramethylhexadecane-1,16-dioic acid]
Liver/body weight % [1, 10]: 5.8 ± 0.2%
Plasma cholesterol [1, 10]: 31 ± 2.2 mg %
Weight gain [1, 10]: 173 ± 8.5 g
effect on plasma cholesterol [1]: small but significant decrease
effect on plasma triglycerides (TG) [1]: clear decrease
% Inhibition (set 2) ([2]; 1.23 μM): 12%
% Inhibition (set 2) ([2]; 3.7 μM): 2%
inhibition at 0.05 μM ([3]; % Inhibition (set 1)): 0%
inhibition at 0.41 μM ([3]; % Inhibition (set 1)): 0%
inhibition at 1.23 μM ([3]; % Inhibition (set 1)): 3%
inhibition at 3.7 μM ([3]; % Inhibition (set 1)): 13%
inhibition at 11.11 μM ([3]; % Inhibition (set 1)): 19%
inhibition at 33.33 μM ([3]; % Inhibition (set 1)): 34%
inhibition at 100 μM ([3]; % Inhibition (set 1)): 50%
inhibition at 0.05 μM ([3]; % Inhibition (set 2)): 0%
inhibition at 0.41 μM ([3]; % Inhibition (set 2)): 3%
inhibition at 1.23 μM ([3]; % Inhibition (set 2)): 10%
inhibition at 3.7 μM ([3]; % Inhibition (set 2)): 8%
inhibition at 11.11 μM ([3]; % Inhibition (set 2)): 18%
inhibition at 33.33 μM ([3]; % Inhibition (set 2)): 26%
inhibition at 100 μM ([3]; % Inhibition (set 2)): 44%
inhibition at 0.05 μM ([4]; % Inhibition (set 1)): 0%
inhibition at 0.41 μM ([4]; % Inhibition (set 1)): 0%
inhibition at 1.23 μM ([4]; % Inhibition (set 1)): 0%
inhibition at 3.7 μM ([4]; % Inhibition (set 1)): 0%
inhibition at 11.11 μM ([4]; % Inhibition (set 1)): 10%
inhibition at 33.33 μM ([4]; % Inhibition (set 1)): 17%
inhibition at 100 μM ([4]; % Inhibition (set 1)): 10%
inhibition at 0.05 μM ([4]; % Inhibition (set 2)): 0%
inhibition at 0.41 μM ([4]; % Inhibition (set 2)): 0%
inhibition at 1.23 μM ([4]; % Inhibition (set 2)): 0%
inhibition at 3.7 μM ([4]; % Inhibition (set 2)): 1%
inhibition at 11.11 μM ([4]; % Inhibition (set 2)): 6%
inhibition at 33.33 μM ([4]; % Inhibition (set 2)): 14%
inhibition at 100 μM ([4]; % Inhibition (set 2)): 19%
IC50 [5]: > 100 µM
IC50 [6]: > 100 µM
IC50 [7]: > 100 µM
IC50 [8]: > 100 µM
